This note sets out measurements from patent US8609860B2, “Acid-labile trigger units” (KTB Tumorforschungsgesellschaft mbH, priority 2009, dated 2013).

For series [1] the following is noted: buffer.
Description: (§1) Half-lives of imine hydrolysis are determined by measuring the decrease of the concentration of the imine and/or the increase of the concentration of the hydrolysis products e.g. by fluorescence methods, HPLC, infrared spectroscopy and/or NMR spectroscopy.
(§2) For example, in the case of compounds comprising above groups Ar and the fluorescent dye AMC (cf. FIG. 3), half-lives of imine hydrolysis are determined by measuring the increase in fluorescence that corresponds to the release of AMC from the model compounds.
(§3) • 200 μL solution per well; • Wavelength: λex=390 nm, λem=460 nm; • Temperature: 37° C.
Series [2] can be described thus: Determination of half-lives for the imine hydrolysis in model compounds (AMC release, fluorescence).
Description: as §1, §2, §3

As to “4-(Perfluorobenzylideneamino)benzyl 4-methylcoumarin-7-ylcarbamate [Compound 6]”, the “t1/2 pH 5.0 (half-life of imine hydrolysis)” value in series [1] (pH 5) is listed as 173 min. In addition, in series [1] (pH 7.4), the “t1/2 pH 7.4 (half-life of imine hydrolysis)” value is 365 h.

As to `Cc1cc(=O)oc2cc(NC(=O)OCc3ccc(N=Cc4ccccc4)cc3)ccc12` [Compound 4, 4-(Benzylideneamino)benzyl 4-methylcoumarin-7-ylcarbamate], the half-life (as a rule, the time needed for the level to fall by half in the phase considered) in series [2] (acetate buffer, pH 5) was 0.567 h; in series [2] (phosphate buffer, pH 7.4) it was 8 h.

In the case of `Cc1cc(=O)oc2cc(NC(=O)OCc3ccc(N=Cc4c(F)c(F)cc(F)c4F)cc3)ccc12` [Compound 5, 4-(2,3,5,6-Tetrafluorobenzylideneamino)benzyl 4-methylcoumarin-7-ylcarbamate], the half-life is 0.567 h in series [2] (acetate buffer, pH 5) and 89 h in series [2] (phosphate buffer, pH 7.4).
